Laboratory results: patent US12622910B2, “Inhibitors of Bruton's tyrosine kinase and methods of their use” (Janssen Pharmaceutica NV, priority 2021, dated 2026)
Where two headings read alike, the source gives them in different places. Marks after values point to notes of the source that are not given here.

Columns and labels:
[1] = molecular target: T1, BTK (Homo sapiens, UniProt Q06187); experiment: Phase 1 study, BTK occupancy in PBMCs; assay type: in vivo; design: measuring free BTK levels in peripheral blood mononuclear cells (PBMCs) and calculating % BTKO; endogenous in cells; host or cells: human PBMCs, lysed after isolation from whole blood; details: for BTKO at 24 hr, ss, median observed / Calculated Average BTKO, observed / Max BTKO at ss, median observed: Day 10 oral solution; for mean BTKO: all MAD dose groups
T1 sequence (Q06187 whole entry): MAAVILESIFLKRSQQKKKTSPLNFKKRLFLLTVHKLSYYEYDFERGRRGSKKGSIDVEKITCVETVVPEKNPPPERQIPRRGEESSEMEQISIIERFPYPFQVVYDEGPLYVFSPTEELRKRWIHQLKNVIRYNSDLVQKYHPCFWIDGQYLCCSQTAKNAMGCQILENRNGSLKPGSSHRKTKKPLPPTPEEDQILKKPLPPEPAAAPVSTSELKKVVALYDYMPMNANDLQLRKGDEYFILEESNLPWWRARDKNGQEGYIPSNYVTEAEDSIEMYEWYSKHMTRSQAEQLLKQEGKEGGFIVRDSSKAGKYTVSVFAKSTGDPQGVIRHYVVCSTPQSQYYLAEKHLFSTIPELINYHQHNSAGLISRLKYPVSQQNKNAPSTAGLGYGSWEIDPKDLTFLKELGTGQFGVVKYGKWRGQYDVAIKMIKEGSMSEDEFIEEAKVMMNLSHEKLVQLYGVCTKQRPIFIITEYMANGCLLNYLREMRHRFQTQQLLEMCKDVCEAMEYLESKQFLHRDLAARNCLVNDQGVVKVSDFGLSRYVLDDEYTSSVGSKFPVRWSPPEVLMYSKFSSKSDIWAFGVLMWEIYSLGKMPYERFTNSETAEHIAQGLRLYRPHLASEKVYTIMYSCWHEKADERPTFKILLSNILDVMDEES
Method: Pharmacodynamics (BTKO)—In Part 1, venous blood samples (8 mL) were collected predose and at 1, 2, 4, 8, 12, 24, 48, and 72 hours post-dose for measuring free BTK levels in peripheral blood mononuclear cells (PBMCs) and calculating % BTKO. In Part 2, blood samples were taken on day 1 predose and at 2, 4, and 8 hours after dosing; days 2-10 predose and 4 hours post-dose; and at 24, 48, and 72 hours after the last dose and at the follow-up visit.
After PBMCs were isolated from whole blood, they were lysed and prepared for the measurement of BTK occupancy using a custom streptavidin-coated Meso Scale Discovery (MSD) immunoassay. Percent occupancy was calculated as 100%×([Baseline free BTK−Free BTK with treatment]/Baseline Free BTK).

[2] = Population PK model and simulations; design: species or system human
[3] = Blood-to-plasma concentration ratio; assay type: in vitro ADME; details: mouse, fresh blood
[4] = Preclinical PK, oral and IV; assay type: in vivo, rat; details: for Cmax / Tmax / AUC(0-inf): po, 5 mg/kg; for AUC(0-inf): read-out: Oral AUCinf
[5] = molecular target: T1, BTK; experiment: Eurofins KinaseProfiler/IC50Profiler radiometric kinase activity assay; assay type: biochemical
Method: (§1) RESULTS AND DISCUSSION—Selectivity—The compound of Formula (III) was evaluated in three selectivity panels to assess the potential for off-target pharmacology (Table 8). […] The kinase off-target profile of The compound of Formula (III) was assessed in a full human wild-type panel using radiometric kinase activity assays (KinaseProfiler™ and IC50Profiler™; Eurofins Scientific) (Table 9; FIG. 23). The compound of Formula (III) inhibited 4/278 kinases >50% at 1 micromolar, identifying BTK and the three other kinases having analogous Cys residues with the potential for covalent inhibition (BMX, TEC, BLK). […]. The cellular kinase selectivity of The compound of Formula (III) was established in native Ramos B cell kinome assays (KiNativ™; ActivX) confirmed BTK as the primary target with inhibition of BLK and TEC inhibition detected (Table 10).

[6] = molecular target: T2, TEC (Homo sapiens, UniProt P42680); experiment: as above; assay type: biochemical
T2 construct: purchased Eurofins Scientific
T2 sequence (P42680 1-631): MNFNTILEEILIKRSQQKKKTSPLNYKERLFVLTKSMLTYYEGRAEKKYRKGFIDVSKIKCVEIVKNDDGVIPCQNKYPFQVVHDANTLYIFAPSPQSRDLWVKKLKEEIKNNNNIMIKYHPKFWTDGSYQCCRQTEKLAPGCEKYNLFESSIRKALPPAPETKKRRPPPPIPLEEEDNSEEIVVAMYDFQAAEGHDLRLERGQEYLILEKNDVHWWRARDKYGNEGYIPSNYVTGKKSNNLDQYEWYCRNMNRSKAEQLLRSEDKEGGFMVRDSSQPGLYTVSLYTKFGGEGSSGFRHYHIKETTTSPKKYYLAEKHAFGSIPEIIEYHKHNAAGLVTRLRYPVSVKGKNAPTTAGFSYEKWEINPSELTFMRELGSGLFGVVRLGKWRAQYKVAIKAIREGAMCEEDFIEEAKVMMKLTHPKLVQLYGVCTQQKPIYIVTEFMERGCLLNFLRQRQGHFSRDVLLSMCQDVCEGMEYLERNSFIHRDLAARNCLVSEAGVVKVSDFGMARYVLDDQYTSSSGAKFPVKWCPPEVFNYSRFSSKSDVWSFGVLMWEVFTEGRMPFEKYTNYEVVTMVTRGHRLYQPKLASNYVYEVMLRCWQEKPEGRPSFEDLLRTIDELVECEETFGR
Method: as §1

[7] = Blood-to-plasma concentration ratio; assay type: in vitro ADME; details: monkey, fresh blood
[8] = rat, in vivo, 5 mg/kg crystalline suspension PO (0.5% HPMC)
[9] = rat, in vivo, 5 mg/kg solution PO (20% HPβCD)
[10] = 10-point concentration response, read-out: IC50 (IC50 Profiler)

In the case of C=CC(=O)N[C@H]1CCC[C@H]1NC(=O)c1sc2nccc3c2c1NC(=O)N3c1cnc(CC(C)C)cc1C (atropisomer, axis not shown) [compound of Formula (III), N-((1R,2S)-2-Acrylamidocyclopentyl)-5-(S)-(6-isobutyl-4-methylpyridin-3-yl)-4-oxo-4,5-dihydro-3H-1-thia-3,5,8-triazaacenaphthylene-2-carboxamide], the “BTKO at 24 hr, ss, median observed” value ([1]; 36 mg QD) is reported as 69.5%, the “Calculated Average BTKO, observed” value ([1]; 36 mg QD) is reported as 74.2% and the “Max BTKO at ss, median observed” value ([1]; 36 mg QD) is reported as 78.9%. For the same compound, the “mean % BTKO” value ([1]; 36 mg QD, day 1, 4 hours) was 34%, the “mean % BTKO” value ([1]; 36 mg QD, day 10, 4 hours) was 80% and the “BTKO at 24 hr, ss, median observed” value ([1]; 100 mg QD) was 84.1%. For the same compound, the “Calculated Average BTKO, observed” value ([1]; 100 mg QD) was 89.1%, the “Max BTKO at ss, median observed” value ([1]; 100 mg QD) was 94.1% and the “mean % BTKO” value ([1]; 100 mg QD, day 1, 4 hours) was 61%. The “mean % BTKO” value ([1]; 100 mg QD, day 10, 4 hours) was 91%, the “BTKO at 24 hr, ss, median observed” value ([1]; 200 mg QD) was 78.9% and the “Calculated Average BTKO, observed” value ([1]; 200 mg QD) was 88.8%. The “Max BTKO at ss, median observed” value ([1]; 200 mg QD) was 98.8%, the “mean % BTKO” value ([1]; 200 mg QD, day 1, 4 hours) was 94% and the “mean % BTKO” value ([1]; 200 mg QD, day 10, 4 hours) was 98%. For the same compound, the “mean % BTKO lower, capsule vs solution” value ([1]; 4 hours post-dose) was “≈ 37%”, the “mean % BTKO lower, capsule vs solution” value ([1]; 24 hours post-dose) was “≈ 30%” and the “mean % BTKO at follow-up visit (7-14 days)” value ([1]; Part 1, all treatment groups) was ≤ 42%. For the same compound, the “mean % BTKO at follow-up visit (7 to 14 days)” value ([1]; Part 2, all treatment groups) was < 40%, the “mean BTKO” value ([1]; 24 hours after Day 10 dose) was “above 65%” and the “mean BTKO” value ([1]; 72 hours after Day 10 dose) was > 30%. The “mean % BTKO” value ([1]; single 36 mg, females, 4 hours) was 55%, the “mean % BTKO” value ([1]; single 36 mg, males, 4 hours) was 39% and the “peak mean % BTKO” value ([1]; single 100 mg solution, fed, 8 hours post-dose) was 73%. For the same compound, the “mean % BTKO” value ([1]; single 100 mg solution, male fasted, 4 hours post-dose) was 86%, the “mean % BTKO” value ([1]; single 100 mg, females, 4 hours) was 81% and the “mean % BTKO” value ([1]; single 105 mg capsule, 4 hours) was 54%. The “mean % BTKO” value ([1]; single 105 mg capsule, 24 hours) was 53%, the “maximum % BTKO (mean)” value ([1]; single and multiple doses ≥100 mg) was ≥ 90% and the “duration of BTKO” value ([1]; single doses ≥100 mg) was “up to 72 hours”. For the same compound, the “% BTKO” value ([1]; single doses ≥100 mg, male fasted, 4 hours) was ~100%, the “V2/F, popPK estimate” value ([2]; model (A), first 5 SAD cohorts) was 43.0 L and the “V2/F, popPK estimate” value ([2]; model (B), all SAD and MAD data) was 49.5 L. For the same compound, the blood plasma ratio at 1 μM [3] was 0.84, the F ([4]; 5 mg/kg crystalline suspension PO (0.5% HPMC)) was 41 ± 19^b % and the F ([4]; 5 mg/kg solution PO (20% HPβCD)) was 28 ± 6^a; %. The clearance ([4]; rat, in vivo, iv) was 55 ± 2 mL/min/kg, the half-life ([4]; rat, in vivo, iv, read-out: IV T1/2 (converted)) was 24 min and the Vd ([4]; rat, in vivo, iv, read-out: Vss) was 1.9 ± 0.2 L/kg. For the same compound, the Cmax [4, 8] was 133 ± 53 ng/mL, the Tmax [4, 8] was 102 ± 36 min and the AUC(0-inf) [4, 8] was 626 ± 290 ng·h/mL. For the same compound, the Cmax [4, 9] was 189 ± 81 ng/mL, the Tmax [4, 9] was 30 min and the AUC(0-inf) [4, 9] was 425 ± 96 ng·h/mL. For the same compound, the inhibition at 1 µM ([5]; 1 μM) was 98%, the IC50 [5, 10] was 558 nM and the inhibition at 1 µM ([6]; 1 μM) was 88%. The IC50 [6, 10] was 303 nM and the blood plasma ratio at 1 μM [7] was 0.69.
